Data taken from US11945779B2, “Inhibitors of cancer metastasis through inhibiting migration and invasion of cancer cells” (VSpharmtech, priority 2018, dated 2024).

Assays:
[1] = system: colon cancer cell line DLD-1; assay: Real-time single cell migration imaging (HoloMonitor M4), DLD-1; assay type: cell-based, human; conditions: DLD-1, 24 hours, FIG. 7
Protocol: (§1) An effect of a drug on migration of single cells was confirmed using HoloMonitor M4 (Phase Holographic Imaging), real-time cell migration imaging and analysis equipment. All experiments were performed within a 37° C. cell incubator to analyze cell migration while cells were alive for a long time. To prevent water vapor generated during cell imaging for a long time from obstructing the imaging, the experiment was conducted by dividing cells in an m-slide microcopy chamber (Ibidi). In order to analyze migration of single cells, cells (2.5×10^5 cells/mL) to be analyzed were divided to the m-slide microscopy chamber by 0.2 mL and cultured for more than 12 hours. The cells were sufficiently attached to its original shape and then treated with the drug, and a position to be analyzed was specified, and then the cell migration was measured in real time.
(§2) The cell migration was measured for 24 hours at five-minute intervals, and migration of 25 cells per group was analyzed. Using the HoloMonitor tracking software, a total distance migrated by the cells during the time measured, a linear distance from the starting point to the arrival point, a rate of migration, and a direction were quantitatively analyzed, and the migration of single cells was visualized with a Wind-Rose plot (FIG. 7).

[2] = system: normal cell line MCF-10A; assay: Real-time single cell migration imaging (HoloMonitor M4), MCF-10A; assay type: cell-based; conditions: 24 hours, FIG. 7
Protocol: as §1, §2

[3] = system: human colon cancer cell line DLD-1; assay: Lamellipodia formation inhibition (confocal microscope), DLD-1; assay type: cell-based; conditions: DLD-1, 6 hours, FIG. 9
Protocol: A human colon cancer cell line DLD-1, a human pancreatic cancer cell line AsPc-1, a human melanoma cell line A375P, and normal cells MCF10A were each cultured to 1×10^5 cell density on a 35 mm high-m dish plate (ibid GmbH). The cells attached to the plate were washed with phosphate buffered saline (PBS) and then treated with DMSO or CG-618 dissolved in DMSO for 6 hours. After removing the cell culture medium from the plate, the plate was washed two times with PBS and treated with 4% paraformaldehyde dissolved in PBS at room temperature for 10 minutes to immobilize the cells. The plate was washed with PBS once and then treated with 0.2% Triton X-100 at room temperature for 10 minutes to enhance cell permeability. The plate was washed with PBS and treated with 1% BSA dissolved in PBS at room temperature for 1 hour to block non-specific bonds. In order to check the distribution in cells of filament actin (F-actin), phalloidin bound with Alexa Fluor 488, which was specifically bound with F-actin, was treated at room temperature for 15 minutes. The plate was washed with PBS three times and then treated with 2 mg/mL 4′,6′-diamidino-2-phenylindole (DAPAI) dissolved in PBS for two minutes at room temperature to dye the nucleus. The plate was washed with PBS three times and filled with 1 mL PBS. […] The obtained images were analyzed by an analysis program (LSM Version 3.2 software).

[4] = system: human-derived colon cancer cell line (HCT-116 luciferase); assay: Colon cancer liver metastasis implant model in nude mouse (live animal imaging); assay type: in vivo; conditions: for Cancer metastasis inhibitory effect by whole image data: 20 times, five times a week
From the text: In this experiment, a human-derived colon cancer cell line (HCT-116 luciferase) was implanted to the spleen and then the spleen was removed and sutured after four days. In a colon cancer liver metastasis implant model, cancer metastasis inhibitory activity by oral administration of CG-609 was verified using a live animal imaging system. As the animal, an Athymic-NCr NCr-nu SPF 5-week-old nude mouse supplied from Koatech (Pyeongtaek-si, Gyeonggi-do) was used. By adjusting a concentration of cancer cells to 2×10^6 cells/mL, the cell culture solution was injected directly into the spleen using a syringe (31 G needle, ½ cc) by 30 μL per mouse. The drug CG-609 was dissolved to a concentration of 5 mg/kg or 10 mg/kg using 0.5% Tween80 and then orally administered to the mouse in an amount of 10 mL/kg total 20 times on a schedule of five times a week.
HCT-116 luciferase cells were implanted, drug administration started from the day after the cancer cell was implanted, and the cells were imaged a total of seven times until the 25th day, the end of the experiment. During imaging, 50 μL of […] was intraperitoneally administered into each side of the animal's abdomen at a concentration of luciferin 15 mg/mL, and then photographed using an optical imaging system (IVIS-spectrum CT, PerkinElmer). On the final day of the test, the mouse was imaged and then […], and major organs (liver, kidney, and colon) were extracted to be imaged, and then the degree of image signal was measured. The values of all measurement items were tested for statistical significance by comparing a solvent control and a drug administration group using a t-TEST statistical method (FIGS. 10A and 10B).

[5] = system: pancreatic cancer cells CFPAC-1; assay: Trans-well cancer cell migration inhibition, CFPAC-1; assay type: cell-based; conditions: CFPAC-1, concentration not given, FIG. 3
Protocol: In order to analyze cancer cell migration inhibitory activity of CG-608, CG-609 or CG-618 prepared in Examples 1, 2, or 9, cell migration inhibitory activity was measured using a trans-well by targeting a colon cancer cell line DLD-1 (ATCC-CCL-221), pancreatic cancer cell lines AsPc-1 (ATCC-CCL-1682). CFPAC-1 (ATCC-CCL-1918). Panc-1 (ATCC-CCL-1469), and Miapaca-2 (ATCC-CCL-1420), a skin cancer cell line A375-P (ATCC-CCL-3224), lung cancer cell lines HCC-827 (ATCC-CCL-2868), A549 (ATCC-CCL-185), and NCI-H460 (ATCC-CCL-177), a prostate cancer cell line DU145 (ATCC-HTB-81), a stomach cancer cell line NuGC-3 (JCRB0822), and an ovarian cancer cell line SKOV-3 (ATCC-HTB-77).
First, the number of DLD-1 cells was measured using a hemocytometer in an RPMI medium without FBS. […] After culture, […] of crystal violet (5 mg/mL of 20% […] was added to each well of the 24-well plate and the trans-well was dyed at room temperature for 30 minutes. The dyed trans-well was washed with PBS and non-migrated cells were wiped off with cotton swabs. The prepared sample was photographed with an inverted microscope mounted with a digital camera (TE 300, Nikon. Japan) and then the number of migrated cells was counted. The degree of inhibiting cell migration was calculated by Equation 1 for a group treated with the sample compared to a control group (DMSO). […]

In the case of `CC1CCCCN1C(C)COc1ccccc1Cc1ccccc1` (racemic) [CG-618, 1-(1-(2-benzylphenoxy)propan-2-yl)-2-methylpiperidine], the “Migration of single cancer cells (real-time imaging)” value [1] is reported as “strongly inhibited”, the “Migration of single normal cells (real-time imaging)” value [2] is reported as “increased” and the Formation of lamellipodia [3] is reported as “inhibits formation of lamellipodia”.

With `C[C@H](COc1ccccc1Cc1ccccc1)N1CCCC[C@@H]1C` [CG-609, (S)-1-((R)-1-(2-benzylphenoxy)propan-2-yl)-2-methylpiperidine] the “Colon metastasis inhibitory effect” value ([4]; 5 mg/kg oral) was 76.9%, the “Liver metastasis inhibitory effect” value ([4]; 5 mg/kg oral) was 47.7% and the “Renal metastasis inhibitory effect” value ([4]; 5 mg/kg oral) was 72.4%. For the same molecule, the “Cancer metastasis inhibitory effect by whole image data” value ([4]; 5 mg/kg oral) was 77.9%, the “Inhibition of cancer metastasis in animal experiment” value ([4]; 5 mg/kg, 10 times lower dose than benproperine (50 mg/kg), FIGS. 10A and 10B) was ≥ 50% and the “Colon metastasis inhibitory effect” value ([4]; 10 mg/kg oral) was 85.6%. The “Liver metastasis inhibitory effect” value ([4]; 10 mg/kg oral) was 58.6%, the “Renal metastasis inhibitory effect” value ([4]; 10 mg/kg oral) was 76.1% and the “Cancer metastasis inhibitory effect by whole image data” value ([4]; 10 mg/kg oral) was 80.1%. The “Inhibition of cell migration” value [5] was ≥ 50%.
